For orientation: IC50 means the concentration needed to halve the response being measured. By inhibition is commonly meant how much of the control response was suppressed. A lower inhibition goes with a response near the control.

Results on 23 compounds are retold here after US20130064913A1, “ANTI-INFLAMMATORY BOTANICAL PRODUCTS FOR THE TREATMENT OF METABOLIC SYNDROME AND DIABETES” (Metaproteomics, LLC, priority 2001, published 2013).

For assay [1], the system named is PGE2 synthesis in LPS-stimulated RAW 264.7 cells. The assay is described as follows: PGE2 inhibition in LPS-stimulated RAW 264.7 murine macrophages (Example 1). Type of assay: cell-based. The following applies: for IC50: Mus musculus, RAW264.7; for Relative Potency: category of anti-inflammatory activity based on IC50.
Assay [2] concerns LPS-treated 3T3-L1 adipocytes. The assay is described as follows: Adiponectin secretion in LPS/3T3-L1 adipocytes. Type of assay: cell-based, murine. The following applies: 100 ng LPS/ml.
The subject of another assay is 3T3-L1 adipocytes. The experiment in a line: Lipogenesis (Oil Red O / BODIPY) in 3T3-L1 adipocytes. It counts as cell-based, murine. As to conditions: hops compounds 10, 5, 4 or 2 μg/ml, spent hops 50 μg/ml (Example 19).
For assay [3], the system named is insulin-resistant 3T3-L1 adipocytes. The assay is described as follows: Adiponectin secretion from insulin-resistant 3T3-L1 adipocytes. It counts as cell-based, murine. The following applies: for Adiponectin/IL-6: insulin-resistant model.
From the text: For two days, the cells were allowed grow to reach confluence. […] Twenty-four hours later, the supernatant medium was sampled for adiponectin determination. […] The adiponectin secreted into the medium was quantified using the Mouse Adiponectin Quantikine® Immunoassay kit with no modifications (R&D Systems, Minneapolis, Minn.). […] Substituting {relative adiponectin secretion/[concentration]} for the independent variable v/[S] and {relative adiponectin secretion} for the dependant variable {v}, produced a relationship of the form y=mx+b. Maximum adiponectin secretion relative to the solvent control was estimated from the y-intercept, while the concentration of test material necessary for half maximal adiponectin secretion was computed from the negative value of the slope.
A further assay has as its system NF-κB. The assay is described as follows: NF-κB DNA binding of nuclear extracts (TransAM NF-κB kit) from LPS-stimulated RAW 264.7 cells. It counts as cell-based, murine. The following applies: LPS 4 h; MgRIAA 55 and 14 μg/ml, parthenolide 80 μM, LY294002 25 μM. The procedure:
Nuclear extracts were prepared essentially as described by Dignam, et al [Nucl Acids Res 11:1475-1489, (1983)]. […] Cells were then scraped into a clean tube and processed through three cycles of freeze/thaw. The supernatant layer following centrifugation at 10,000×g for 5 min at 4° C. was the cytoplasmic fraction. […] The nuclear extract fraction was collected as the supernatant layer following centrifugation at 10,000×g for […] at 4° C. NF-kB DNA binding of the nuclear extracts was assessed using the TransAM NF-κB kit from Active Motif (Carlsbad, Calif.) as per manufacturer's instructions. […] Protein concentration was measured (Bio-Rad assay) and 10 μg of nuclear protein extracts were assayed in duplicate.

In assay [4] the test system is TNFα-treated 3T3-L1 adipocytes. The experiment in a line: IL-6 secretion from TNFα-treated 3T3-L1 adipocytes. Type of assay: cell-based, murine. The following applies: Mus musculus, 10 ng TNFα/ml; for inhibition at 1 µg/mL: 1.0 μg/ml.
The next assay deals with COX-2 protein expression. The experiment in a line: COX-2 protein expression by Western blot in LPS-stimulated RAW 264.7 cells. Type of assay: cell-based, murine. The following applies: 20 hours LPS, versus DMSO solvent control. As for the experimental part: Densitometry was performed using Kodak®software.
In general terms: A western blot detects proteins with antibodies after separation by electrophoresis.

[5] abbreviates: arbitrary category of the median inhibitory concentration, read-out: Relative IC50.
Where [6] appears, read: test material added 90 min before LPS, 18 h, read-out: IC50 (PGE2 inhibition).

Values after ≈ are worked out from the molar mass of the structure shown. Like-named read-outs stand apart in the source and are kept apart here. Marks after values point to notes of the source that are not given here.

Take `O=c1cc(-c2ccc(O)cc2)oc2cc(O)cc(O)c12` [Apigenin, apigenin]: the IC50 was 2 to 7 µg/mL (≈ 7.4 to 25.9 µM) in assay [1], 2 to 6 µg/mL (≈ 7.4 to 22.2 µM) in assay [1] (setting [5]) and 2.8 µg/mL (≈ 10.4 µM) in assay [1] (setting [6]).

With `CC(=O)Oc1ccccc1C(=O)O` [Aspirin], the “% Stimulation of adiponectin secretion (maximum)” value (shortened to “% Stimulation”) in assay [2] was “failed to induce adiponectin secretion”.

For the compound `COc1ccc2cc3[n+](cc2c1OC)CCc1cc2c(cc1-3)OCO2` [Berberine], the IC50 in assay [1] lay in the range of 2 to 7 µg/mL.

For `Cc1ccc(-c2cc(C(F)(F)F)nn2-c2ccc(S(N)(=O)=O)cc2)cc1` [Celecoxib, celecoxib], the “% Stimulation” value in assay [2] is on record as “failed to induce adiponectin secretion”.

For `COc1cc(/C=C/C(=O)CC(=O)/C=C/c2ccc(O)c(OC)c2)ccc1O` [Curcumin, curcumin], the IC50 in assay [1] was in the range of 2 to 7 µg/mL (≈ 5.43 to 19 µM); in assay [1] (setting [5]) it was 2 to 6 µg/mL (≈ 5.43 to 16.3 µM).

Take `O=c1c(O)c(-c2ccc(O)c(O)c2)oc2cc(O)ccc12` [Fisetin, fisetin]: the IC50 in assay [1], in assay [1] (setting [5]) and in assay [1] (setting [6]) was more than 12 µg/mL throughout.

As for `O=c1c(O)c(-c2ccccc2)oc2cc(O)cc(O)c12` [Galangin, galangin], the results for the IC50 in assay [1], in assay [1] (setting [5]) and in assay [1] (setting [6]) were 0.3 to 1.7 µg/mL (≈ 1.11 to 6.29 µM), 1 µg/mL (≈ 3.7 µM) and 1.4 µg/mL (≈ 5.18 µM), respectively. Further, the “Relative Potency” value in assay [1] was “high”.

With `O=c1c(-c2ccc(O)cc2)coc2cc(O)cc(O)c12` [Genistein, genistein], the IC50 in assay [1] was 0.3 to 1.7 µg/mL (≈ 1.11 to 6.29 µM); in assay [1] (setting [5]), 1 µg/mL (≈ 3.7 µM); in assay [1] (setting [6]), 1.7 µg/mL (≈ 6.29 µM). Besides, the “Relative Potency” value in assay [1] is listed as “high”.

Turning to `CC(C)CCC1=C(O)C(C(=O)C(C)C)=C(O)C(CCC(C)C)(CCC(C)C)C1=O` [Hexahydrocolupulone], in the assay with 3T3-L1 adipocytes, the “adipogenic response, in words” value is given as “failed to elicit a lipogenic response greater than the solvent controls”. The values for the Adiponectin/IL-6 in assay [3] (25 μg/ml) and in assay [3] (50 μg/ml) were 1.36# and 0.60#, respectively. For the same compound, the “concentration at which maximal adiponectin secretion was observed” value in assay [3] (of the four doses tested) worked out at 12.5 µg/mL.

Consider `COc1ccc2c(c1)c(CC(=O)O)c(C)n2C(=O)c1ccc(Cl)cc1` [Indomethacin, indomethacin], for which the “% Stimulation” value in assay [2] came to 9%.

For the compound `CC(C)Oc1ccc2c(=O)c(-c3ccccc3)coc2c1` [Ipriflavone, ipriflavone], the figures for the IC50 in assay [1], in assay [1] (setting [5]) and in assay [1] (setting [6]) were 2 to 7 µg/mL (≈ 7.13 to 25 µM), 2 to 6 µg/mL (≈ 7.13 to 21.4 µM) and 6.3 µg/mL (≈ 22.5 µM), respectively.

Take `O=c1cc(N2CCOCC2)oc2c(-c3ccccc3)cccc12` [LY294002]: the “NF-κB DNA binding, in words” value with NF-κB is reported as “modest decrease”.

On to `O=c1cc(-c2ccc(O)c(O)c2)oc2cc(O)cc(O)c12` [Luteolin, luteolin], for which the IC50 is 2 to 7 µg/mL (≈ 6.99 to 24.5 µM) in assay [1], 2 to 6 µg/mL (≈ 6.99 to 21 µM) in assay [1] (setting [5]) and 3.9 µg/mL (≈ 13.6 µM) in assay [1] (setting [6]).

Consider `CN(C)C(=N)N=C(N)N` [Metformin], for which the inhibition at 1 µg/mL in assay [4] worked out at 9%. Besides, the inhibition at 5 µg/mL in assay [4] (5.0 μg/ml) came out at 4%. Also, in assay [4] (10 μg/ml), at 10 µg/mL the inhibition was 22%. Moreover, the inhibition at 50 µg/mL in assay [4] (50 μg/ml) turned out to be 22%.

For `O=c1c(O)c(-c2ccc(O)cc2O)oc2cc(O)cc(O)c12` [Morin, morin], the IC50 in assay [1], in assay [1] (setting [5]) and in assay [1] (setting [6]) was more than 12 µg/mL in each case.

For `O=C1C[C@@H](c2ccc(O)cc2)Oc2cc(O)cc(O)c21` [Naringenin, naringenin], the IC50 in assay [1], in assay [1] (setting [5]) and in assay [1] (setting [6]) was more than 12 µg/mL each time.

Regarding `CC1(C)CC[C@]2(C(=O)O)CC[C@]3(C)C(=CC[C@@H]4[C@@]5(C)CC[C@H](O)C(C)(C)[C@@H]5CC[C@]43C)[C@@H]2C1` [Oleanolic acid, oleanolic acid], the IC50 in assay [1] (setting [5]) came to 1 µg/mL (≈ 2.19 µM).

In the case of `C=C1C(=O)O[C@H]2[C@H]1CC/C(C)=C/CC[C@@]1(C)O[C@@H]21` [Parthenolide], the “reduction of COX-2 protein expression” value with COX-2 protein expression is recorded as 22.5%. In the assay on NF-κB, the “NF-κB DNA binding, in words” value is listed as “significant reduction”.

As for `CCc1ccc(CCOc2ccc(CC3SC(=O)NC3=O)cc2)nc1` (centres unmarked) [Pioglitazone], the “Adiponectin Index (maximum stimulation)” value in assay [2] (relative to LPS control) is 1.12*.

Take `O=c1c(O)c(-c2ccc(O)c(O)c2)oc2cc(O)cc(O)c12` [Quercetin]: the IC50 in assay [1] was 0.3 to 1.7 µg/mL (≈ 0.993 to 5.62 µM); in assay [1] (setting [5]), 1 µg/mL (≈ 3.31 µM); in assay [1] (setting [6]), 0.82 µg/mL (≈ 2.71 µM). Moreover, the “Relative Potency” value in assay [1] was “high”.

Take `Oc1ccc(C=Cc2cc(O)cc(O)c2)cc1` [Resveratrol, resveratrol]: the IC50 in assay [1] fell in the range of 2 to 7 µg/mL (≈ 8.76 to 30.7 µM).

For the compound `O=C(O)c1ccccc1O` [Salicylic acid, salicylic acid], the “% Stimulation” value in assay [2] is listed as “failed to induce adiponectin secretion”.

In assay [4], `Cc1c(C)c2c(c(C)c1O)CCC(C)(COc1ccc(CC3SC(=O)NC3=O)cc1)O2` (centres unmarked) [Troglitazone] had an inhibition at 1 µg/mL of 34%. The “Concentration at maximum stimulation of adiponectin secretion” value in assay [2] was determined as 0.625 µg/mL.
